The record followed here is PubChem BioAssay (NCI).

Among the test systems are A498 renal; CAKI-1 renal; DU-145 prostate; EKVX NSCLC; HS 578T breast; KM12 colon; NCI-H226 lung; SF-539 CNS; SK-MEL-2 melanoma; UACC-257 melanoma.
What all share (test): NCI-60 cell line screen, 48 h

Structures are written as SMILES.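 Dose response: 5 concentrations. Exposure: 48 h. Format: 96-well plates. Endpoint: linear interpolation; highest concentration if not reached. GI50 marks 50% less growth. TGI marks complete inhibition of growth.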

Take `CCCCON(OC(=O)c1ccc2ccc3cccc4ccc1c2c34)C(C)=O`: the GI50 is 27.7 µM with A498 renal; 14.4 µM in the assay on CAKI-1 renal; 31.1 µM in the assay on DU-145 prostate; 27.3 µM in the assay with EKVX NSCLC; 18.8 µM with HS 578T breast; 28.8 µM with KM12 colon. Besides, the GI50 with NCI-H226 lung was 21 µM; in the assay on SF-539 CNS, 18.5 µM; in the assay with SK-MEL-2 melanoma, 23.9 µM; in the assay on UACC-257 melanoma it was 60.3 µM. Moreover, the TGI is 85.8 µM in the assay on A498 renal; 32.6 µM in the assay on CAKI-1 renal; > 100 µM in the assay on DU-145 prostate; > 100 µM in the assay on EKVX NSCLC; 66.6 µM in the assay with HS 578T breast; > 100 µM in the assay on KM12 colon. Further, the TGI was 53.3 µM in the assay with NCI-H226 lung, 35.6 µM with SF-539 CNS, 68.9 µM in the assay on SK-MEL-2 melanoma and > 100 µM with UACC-257 melanoma.

For the compound `O=C(CCC1OCCO1)Nc1cc(NCc2ccccc2)ccc1OCc1ccccc1`, the TGI in the assay with A498 renal was > 100 µM; with CAKI-1 renal, 71.3 µM; with DU-145 prostate it was > 100 µM; in the assay on EKVX NSCLC it was 65.5 µM; with HS 578T breast it was > 100 µM; in the assay on KM12 colon, 97.9 µM. Further, the TGI with NCI-H226 lung is > 100 µM; with SF-539 CNS, 94.6 µM; in the assay with SK-MEL-2 melanoma, 49.7 µM; with UACC-257 melanoma, 53.3 µM.

As to `COc1cccc(C#Cc2ccccc2C#CCCCCO)c1`, the GI50 in the assay on A498 renal is 10.3 µM; in the assay with CAKI-1 renal, 6.49 µM; in the assay on DU-145 prostate it was 4.17 µM; with EKVX NSCLC it was 8.74 µM; in the assay with HS 578T breast it was 22.9 µM; in the assay with KM12 colon it was 12.4 µM. Moreover, the GI50 was 15.7 µM with NCI-H226 lung, 11.5 µM in the assay with SF-539 CNS, 20.5 µM in the assay on SK-MEL-2 melanoma and 12.5 µM in the assay with UACC-257 melanoma. The TGI in the assay on A498 renal was determined as 23.8 µM; in the assay with CAKI-1 renal, 19.9 µM; with DU-145 prostate, 18.9 µM; in the assay on EKVX NSCLC it was 24.3 µM; with HS 578T breast, 56.9 µM; with KM12 colon, 41.8 µM. For the same compound, the TGI was 40.5 µM with NCI-H226 lung, 24.6 µM in the assay on SF-539 CNS, 44.8 µM in the assay with SK-MEL-2 melanoma and 25.4 µM in the assay on UACC-257 melanoma.

For `O=C1CC2c3ccccc3CCC2c2ccccc21` (centres undefined), the TGI was 41.1 µM in the assay on A498 renal; > 100 µM with CAKI-1 renal; > 100 µM in the assay with DU-145 prostate; 15.3 µM in the assay on EKVX NSCLC; 53.4 µM in the assay with HS 578T breast; 26.8 µM in the assay on KM12 colon. Moreover, the TGI amounted to 52.4 µM with NCI-H226 lung, 53.3 µM with SF-539 CNS, 35.9 µM in the assay on SK-MEL-2 melanoma and 73.2 µM with UACC-257 melanoma.

`C=C1C(=O)OC2/C=C(\COC(C)=O)CCC(OC(C)=O)C3=CC(OC3=O)C12` (centres undefined): the TGI with A498 renal was 34.1 µM; in the assay with CAKI-1 renal, 10.1 µM; in the assay on DU-145 prostate, > 100 µM; in the assay with EKVX NSCLC, 34.3 µM; in the assay on HS 578T breast it was 52.8 µM; in the assay on KM12 colon it was 22.1 µM. In addition, the TGI turned out to be 46.4 µM in the assay with NCI-H226 lung, 16.4 µM with SF-539 CNS, 14.7 µM in the assay on SK-MEL-2 melanoma and 6.65 µM with UACC-257 melanoma.

As for `C[C@H](O)C(=O)N1CCC(CCn2c(Sc3cc4c(cc3Br)OCO4)nc3c(N)ncnc32)CC1`, the GI50 with A498 renal was 3.35 µM; in the assay on CAKI-1 renal, 2.26 µM; with DU-145 prostate, 0.642 µM; in the assay with EKVX NSCLC, 4.11 µM; with KM12 colon it was 0.424 µM; in the assay on NCI-H226 lung, 4.01 µM. Further, the GI50 was 1.73 µM in the assay on SF-539 CNS, 4.63 µM in the assay with SK-MEL-2 melanoma and 2.13 µM in the assay on UACC-257 melanoma. Moreover, the TGI with A498 renal is > 100 µM; in the assay with CAKI-1 renal it was > 100 µM; in the assay on DU-145 prostate it was > 100 µM; with EKVX NSCLC it was > 100 µM; with HS 578T breast, > 100 µM; in the assay on KM12 colon it was 9.86 µM. Further, the TGI in the assay on NCI-H226 lung, with SF-539 CNS, in the assay with SK-MEL-2 melanoma and in the assay on UACC-257 melanoma was > 100 µM in each case.

For `CC(C)(C[C@H]1CN(S(=O)(=O)c2cccc(C(F)(F)F)c2)c2cc(-c3cc(F)cc(OC(F)F)c3)ccc2O1)C(=O)O`, the GI50 in the assay with A498 renal is 4.5 µM; with CAKI-1 renal, 10.5 µM; with DU-145 prostate, 12.4 µM; in the assay with EKVX NSCLC it was 5.25 µM; with HS 578T breast, 4.47 µM; in the assay on KM12 colon it was 4.38 µM. Moreover, the GI50 in the assay with NCI-H226 lung was 15.2 µM; in the assay on SF-539 CNS, 5.41 µM; in the assay on SK-MEL-2 melanoma it was 4.8 µM; with UACC-257 melanoma, 11.5 µM. Besides, the TGI stood at 16.9 µM in the assay on A498 renal; 24.4 µM in the assay with CAKI-1 renal; 25.3 µM with DU-145 prostate; 19.3 µM in the assay with EKVX NSCLC; 27.8 µM in the assay with HS 578T breast; 16.4 µM in the assay with KM12 colon. The TGI with NCI-H226 lung turned out to be 56 µM; in the assay on SF-539 CNS, 19.1 µM; with SK-MEL-2 melanoma, 18.2 µM; in the assay on UACC-257 melanoma, 27.3 µM.

Turning to `O=c1cccc(C#CC#CC2=CCCCC2)o1`, the GI50 is 19.8 µM in the assay on A498 renal; 6.48 µM with CAKI-1 renal; 1.96 µM with DU-145 prostate; 10.2 µM in the assay with EKVX NSCLC; 5.24 µM in the assay on HS 578T breast; 5.84 µM in the assay with KM12 colon. Besides, the GI50 in the assay with NCI-H226 lung was 6.87 µM; in the assay with SF-539 CNS it was 0.235 µM; with SK-MEL-2 melanoma, 10.3 µM; in the assay with UACC-257 melanoma, 7.49 µM. Further, the TGI in the assay on A498 renal was 36.8 µM; in the assay with CAKI-1 renal, 10.3 µM; in the assay with DU-145 prostate, 4.4 µM; in the assay with EKVX NSCLC, 25.8 µM; in the assay with HS 578T breast it was 24.3 µM; with KM12 colon, 13.6 µM. The TGI with NCI-H226 lung was 14.6 µM; in the assay on SF-539 CNS, 3.04 µM; in the assay on SK-MEL-2 melanoma, > 49 µM; in the assay with UACC-257 melanoma, 12.9 µM.
